The results in this text go back to patent publication US9670147B2, “Antioxidant inflammation modulators: oleanolic acid derivatives with amino and other modifications at C-17” (REATA PHARMACEUTICALS, INC., priority 2008, dated 2017).

Where only a bound is given, the exact number is not on record here.

Series [1] can be described thus: TP levels in mouse brain after feeding in diet, LC/MS. Format: in vivo. The following applies: CD-1 mice, 200 or 400 mg/kg diet for 3.5 days. How it is done: FIG. 48. […] CD-1 mice were fed either 200 or 400 mg/kg diet of either TP-319 or TP-500 for 3.5 days, and TP levels in the brains of the mice were analyzed by LC/MS. The structures of TP-319 and TP-500 are shown herein.

For series [2], the system named is NQO1. In words: Nrf2 target gene induction in MDA-MB-435 cells: NQO1. The series is classed as cell-based, human. Conditions: 250 nM.
The test system of series [3] is RAW264.7 macrophages. Kind of series: Cell viability, WST-1 reagent. Format: cell-based, mouse. The following applies: Mus musculus, 2 h pre-treatment, then 20 ng/ml IFNγ for 24 hours. Put shortly: (§1)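 Mouse RAW264.7 macrophages pre-treated 2 h with compound (nM concentrations) or DMSO, then stimulated with 20 ng/ml recombinant mouse IFNγ for 24 h. Nitrite in medium measured by Griess reagent; viability by WST-1.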
On the technique in general: Tetrazolium assays rely on reduction of a dye to a coloured formazan, in cell work by metabolically active cells.

The test system of series [4] is IFNγ-induced NO production in RAW264.7 macrophages. In words: Suppression of IFNγ-induced NO production (Griess reagent). The series is classed as cell-based, mouse. Conditions: Mus musculus, 2 h pre-treatment, then 20 ng/ml IFNγ for 24 hours. In short, it runs like this:
as §1
In general terms: Nitrite, measured by Griess reagent, commonly stands in for NO production.

For series [5], the system named is TrxR1. In words: Nrf2 target gene induction in MDA-MB-435 cells, qPCR: TrxR1. The series is classed as cell-based, human. The following applies: 400 nM, 16 hours.
The subject of series [6] is HO-1. Kind of series: Nrf2 target gene induction in MDA-MB-435 cells, qPCR: HO-1. The series is classed as cell-based, human. (In general: Quantitative PCR measures a nucleic acid by following its amplification.)
The test system of series [7] is γ-GCS. In words: Nrf2 target gene induction in MDA-MB-435 cells, qPCR: γ-GCS. The series is classed as cell-based, human.

As for `CC1(C)CC[C@]2(C(=O)NCC(F)(F)F)CC[C@]3(C)[C@H](C(=O)C=C4[C@@]5(C)C=C(C#N)C(=O)C(C)(C)[C@@H]5CC[C@]43C)[C@@H]2C1` [CDDO-TFEA], the “TP levels in the brains of the mice” value in series [1] is recorded as “Higher Levels in Mouse Brain than CDDO-EA”.

In general, IC50 refers to the point on the concentration scale where inhibition reaches its midpoint. Turning to `CC1(C)CC[C@]2(NS(C)(=O)=O)CC[C@]3(C)[C@H](C(=O)C[C@@H]4[C@@]5(C)C=C(C#N)C(=O)C(C)(C)[C@@H]5CC[C@]43C)[C@@H]2C1` [Compound 63215, N-((4aS,6aR,6bR,8aR,12aR,12bR,14aR,14bS)-11-cyano-2,2,6a,6b,9,9,12a-heptamethyl-10,14-dioxo-1,2,3,4,4a,5,6,6a,6b,7,8,8a,9,10,12a,12b,13,14,14a,14b-icosahydropicen-4a-yl)methanesulfonamide], the NQO1 induction in series [2] was 1.7 fold induction above DMSO control. Also, the IC50 in series [3] is greater than 200 nM; in series [4], roughly 15 nM. In addition, the TrxR1 induction in series [5] is recorded as 36% of induction observed for RTA 402. Also, the HO-1 induction in series [6] (250 nM) is given as 1.7 fold induction above DMSO control; in series [6] (400 nM, 16 hours), 1% of induction observed for RTA 402. The γ-GCS induction in series [7] (250 nM) was 3.8 fold induction above DMSO control; in series [7] (400 nM, 16 hours), 21% of induction observed for RTA 402.
